Laboratory results published in ChEMBL document CHEMBL1132081, “Design, synthesis, and structure-activity relationship studies of himbacine derived muscarinic receptor antagonists” (Bioorg Med Chem Lett, 1999).

Columns and labels:
[1] = biological target: T1, Muscarinic acetylcholine receptor M2 (Homo sapiens, UniProt P08172); test: Binding affinity towards human muscarinic M2 receptor in CHO-KI cells using [3H]- QNB as radioligand; format: cell-based
T1 sequence (P08172 whole entry): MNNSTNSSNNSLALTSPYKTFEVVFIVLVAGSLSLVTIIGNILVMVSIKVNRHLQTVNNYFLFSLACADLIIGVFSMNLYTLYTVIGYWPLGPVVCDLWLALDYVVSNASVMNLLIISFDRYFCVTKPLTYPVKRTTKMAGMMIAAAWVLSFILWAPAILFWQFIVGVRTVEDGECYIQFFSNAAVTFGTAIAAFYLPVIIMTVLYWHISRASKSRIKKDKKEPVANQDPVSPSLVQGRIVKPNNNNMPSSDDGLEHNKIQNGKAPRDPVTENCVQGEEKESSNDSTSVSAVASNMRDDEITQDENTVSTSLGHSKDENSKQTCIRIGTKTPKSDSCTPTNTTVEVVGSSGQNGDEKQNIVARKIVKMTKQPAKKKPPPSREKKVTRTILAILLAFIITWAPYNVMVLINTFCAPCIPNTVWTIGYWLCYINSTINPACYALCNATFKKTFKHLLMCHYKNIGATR

[2] = biological target: T2, Muscarinic acetylcholine receptor M1 (Homo sapiens, UniProt P11229); test: Binding affinity towards human muscarinic M1 receptor in CHO-KI cells using [3H]- QNB as radioligand; format: cell-based
T2 sequence (P11229 whole entry): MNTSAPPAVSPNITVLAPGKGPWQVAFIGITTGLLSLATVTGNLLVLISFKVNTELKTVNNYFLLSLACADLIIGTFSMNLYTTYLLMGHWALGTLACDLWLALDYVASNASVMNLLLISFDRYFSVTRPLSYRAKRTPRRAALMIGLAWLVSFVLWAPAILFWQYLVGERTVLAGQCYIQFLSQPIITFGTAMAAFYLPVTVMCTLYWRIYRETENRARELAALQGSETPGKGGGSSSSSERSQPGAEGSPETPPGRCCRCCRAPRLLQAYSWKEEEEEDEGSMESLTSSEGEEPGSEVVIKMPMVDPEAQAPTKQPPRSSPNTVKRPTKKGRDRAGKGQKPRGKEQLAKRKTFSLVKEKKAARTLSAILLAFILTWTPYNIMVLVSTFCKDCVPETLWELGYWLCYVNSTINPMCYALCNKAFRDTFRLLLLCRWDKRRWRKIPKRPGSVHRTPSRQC

Row | SMILES | Ki [1] [µM] | Ki [2] [µM]
1 | C[C@@H]1OC(=O)[C@H]2C[C@H]3CCCC[C@@H]3[C@@H](CCCN3CCCCC3)[C@@H]12 | 0.352 | 0.427
2 | C[C@@H]1OC(=O)[C@H]2C[C@H]3CCCC[C@@H]3[C@@H](CCCN3CCN(C)CC3)[C@@H]12 | 0.595 | 0.579
3 | C[C@@H]1OC(=O)[C@H]2C[C@H]3CCCC[C@@H]3[C@@H](CCCN3CCSCC3)[C@@H]12 | 0.189 | 0.179
4 | C[C@@H]1OC(=O)[C@H]2C[C@H]3CCCC[C@@H]3[C@@H](CCCN3CCN(C4CCCCC4)CC3)[C@@H]12 | 0.52 | 0.464
5 | C[C@@H]1OC(=O)[C@H]2C[C@H]3CCCC[C@@H]3[C@@H](CCCN3CCC(N4CCCCC4)CC3)[C@@H]12 | 0.65 | 0.312
6 | C[C@@H]1OC(=O)[C@H]2C[C@H]3CCCC[C@@H]3[C@@H](CCCN3CCCC(O)C3)[C@@H]12 (stereo not given in full) | 0.148 | 1.53
7 | CC1CCN(CCC[C@@H]2[C@H]3CCCC[C@@H]3C[C@@H]3C(=O)O[C@@H](C)[C@H]23)CC1 | 0.283 | 0.554
8 | C[C@@H]1OC(=O)[C@H]2C[C@H]3CCCC[C@@H]3[C@@H](CCCN3CCNCC3)[C@@H]12 | > 0.042 | > 0.42
9 | C[C@@H]1OC(=O)[C@H]2C[C@H]3CCCC[C@@H]3[C@@H](CCCN3CCN[C@@H](C)C3)[C@@H]12 | > 0.5 | 0.581
10 | C[C@@H]1OC(=O)[C@H]2C[C@H]3CCCC[C@@H]3[C@@H](CCCN3CCCC(C)(C)C3)[C@@H]12 | 0.224 | 0.416
11 | C[C@@H]1OC(=O)[C@H]2C[C@H]3CCCC[C@@H]3[C@@H](CCCN3CCOCC3)[C@@H]12 | 0.051 | 0.222
12 | C[C@@H]1OC(=O)[C@H]2C[C@H]3CCCC[C@@H]3[C@@H](CCCN3CCc4ccccc4C3)[C@@H]12 | 0.184 | 0.304
13 | C[C@@H]1OC(=O)[C@H]2C[C@H]3CCCC[C@@H]3[C@@H](CCCNC34CC5CC(CC(C5)C3)C4)[C@@H]12 | 0.026 | 0.136
14 | C[C@@H]1OC(=O)[C@H]2C[C@H]3CCCC[C@@H]3[C@@H](CCCN3CCCC4CCCCC43)[C@@H]12 (stereo not given in full) | 0.013 | 0.038
15 | CC1CN(CCC[C@@H]2[C@H]3CCCC[C@@H]3C[C@@H]3C(=O)O[C@@H](C)[C@H]23)CC(C)O1 (stereo not given in full) | 0.376 | 0.601
16 | CC1CN(CCC[C@@H]2[C@H]3CCCC[C@@H]3C[C@@H]3C(=O)O[C@@H](C)[C@H]23)C(C)CN1 (stereo not given in full) | 0.57 | 0.353
17 | CC1CCCN(CCC[C@@H]2[C@H]3CCCC[C@@H]3C[C@@H]3C(=O)O[C@@H](C)[C@H]23)C1 (stereo not given in full) | 0.312 | 0.376
18 | C[C@@H]1OC(=O)[C@H]2C[C@H]3CCCC[C@@H]3[C@@H](CC[C@H]3CCC[C@H](C)N3C)[C@@H]12 | 0.0322 | 0.0043
19 | C[C@@H]1OC(=O)[C@H]2C[C@H]3CCCC[C@@H]3[C@@H](CCCN3CCN(C(=O)OC(C)(C)C)CC3)[C@@H]12 | 0.485 | 0.445
20 | CC1CCCCN1CCC[C@@H]1[C@H]2CCCC[C@@H]2C[C@@H]2C(=O)O[C@@H](C)[C@H]12 (stereo not given in full) | 0.275 | 0.399
21 | C[C@@H]1CN(CCC[C@@H]2[C@H]3CCCC[C@@H]3C[C@@H]3C(=O)O[C@@H](C)[C@H]23)CCN1 | > 0.5 | 0.857
22 | CC1CN(CCC[C@@H]2[C@H]3CCCC[C@@H]3C[C@@H]3C(=O)O[C@@H](C)[C@H]23)CC(C)N1 (stereo not given in full) | > 0.5 | 1.36
23 | CCC1CCCCN1CCC[C@@H]1[C@H]2CCCC[C@@H]2C[C@@H]2C(=O)O[C@@H](C)[C@H]12 (stereo not given in full) | 0.209 | 0.341
24 | C[C@@H]1OC(=O)[C@H]2C[C@H]3CCCC[C@@H]3[C@@H](CCCN3CCC(O)CC3)[C@@H]12 | > 0.28 | > 0.9
25 | C[C@@H]1OC(=O)[C@H]2C[C@H]3CCCC[C@@H]3[C@@H](/C=C/[C@H]3CCC[C@H](C)N3C)[C@@H]12 [HIMBACINE] | 0.0484 | 0.0045
